Laboratory results as given in patent US4663340A, “Alpha-adrenoreceptor agonistic 2-[(2-cyclopropyl-5-methyl- or 2-cyclopropyl-5-chlorophenoxy)methyl]-2-imidazolines” (priority 1984, dated 1987).
Entries after “also recorded” stand apart in the source; their conditions may differ.

Experiments:
[1] = tested on: postsynaptic α1-adrenoceptor; test: Vasoconstrictor (hypertensive) dose-response in anaesthetized pithed rat, i.v.; type: in vivo, Wistar rat; settings: for Relative power towards Cirazoline: Table I; for Relative power towards Cirazoline / ED50 / potency relative to Cirazoline / potency relative to Fenoxazoline: pithed rat; for ED50 (before antagonists): Table II, before administration of antagonists; for ED50: dose of base inducing 50% of maximal response
Excerpt: (§1) (1) The vaso-constrictor properties and potency of the compounds (I) object of the present invention have been investigated and quantified in the anaesthetized pithed rat by determination of their dose-[…] response curves after intravenous administration, according to the technique described by Shipley and Tilden (Proceedings of Society of Experimental Biology, 1947, 64, pages 453-455). This technique allows assessment of the postsynaptic α-adrenoceptor agonist properties of a drug. […] For each of these drugs, log of cumulative doses-hypertensive response curves after intravenous administration have been drawn in groups of eight Wistar rats, anaesthetized, pithed, bilaterally vagotomized, atropinized and treated with d-tribocurarine. ED50 s (doses in mg/kg of the base inducing 50% of the maximal response) were then calculated for each drug and compared to those of the reference compounds.
Table I reports the values of these ED50 s. It appears from this table that compounds ND 83201 and ND 83204 are the most powerful vaso-constrictor agents, their potency being about 1.75 times that of Cirazoline and three times that of Fenoxazoline.

[2] = tested on: postsynaptic α1-adrenoceptor; settings: literature; cited from earlier work
[3] = tested on: presynaptic α2-adrenoceptor; test: Presynaptic α2-adrenoceptor antagonist activity: restoration of tachycardia reduced by clonidine in pithed rat; settings: for Heartbeat frequency under electric stimulation (supramaximal tachycardia): before clonidine and tested substance; for Heartbeat frequency under electric stimulation and after clonidine: clonidine 40 μg/kg, I.V., before tested substance; for restoration of submaximal tachycardia / presynaptic α2-adrenoceptor antagonist activity: in words, after clonidine 40 μg/kg I.V.
[4] = tested on: α1-adrenoceptor; test: Vasoconstrictor effect in pithed rat after reserpine pre-treatment (direct action); type: in vivo, Wistar rat; settings: except in very high doses
Excerpt: as §1
(a) ND 83201 is a directly acting α1 -adrenoceptor agonist.

[5] = tested on: postsynaptic α2-adrenoceptor; test: Vasoconstrictor effect in pithed rat after specific postsynaptic α2-adrenoceptor antagonist yohimbine; type: in vivo, Wistar rat; settings: for ED50 after yohimbine: I.V.; for ED50 after yohimbine / antagonism of vasoconstrictor effect by yohimbine / ED50 after / ED50 before yohimbine: yohimbine 60 μg/kg/min./5 mins.; for postsynaptic α2-adrenoceptor agonist properties / antagonism of vasoconstrictor effect by yohimbine: in words
Excerpt: as §1
(§2) For each of the three drugs log of cumulative doses-hypertensive response curves after intravenous administration have been drawn and their ED50 s (in μg per kg) were calculated before and after administration of the antagonists in groups of 8 animals each.

[6] = tested on: postsynaptic α1-adrenoceptor; test: Vasoconstrictor effect in pithed rat after specific postsynaptic α1-adrenoceptor antagonist prazosine; type: in vivo, Wistar rat; settings: for ED50 after prazosine: I.V.
Excerpt: as §1, §2

[7] = tested on: presynaptic α2-adrenoceptor; test: Presynaptic α2-adrenoceptor agonist activity: reduction of induced submaximal tachycardia in pithed rat; type: in vivo, Wistar rat; settings: for effect on induced submaximal tachycardia / presynaptic α2-adrenoceptor agonist activity: electrically stimulated spinal cord
[8] = Stability of aqueous solution (hydrolysis of the imidazoline cycle); type: physicochemical; settings: 1 per mill aqueous solution, room temperature
[9] = Solubility in water; type: physicochemical; settings: hydrochloride
[10] = tested on: β-adrenoceptor; test: Vasoconstrictor ED50 after β-adrenoceptor antagonist pretreatment (β-adrenoceptor postsynaptic agonist activity); type: in vivo, Wistar rat; settings: propranold 150 μg/kg/min/5 min
Excerpt: (d) ND 83201 has no β-adrenoceptor postsynaptic agonist activity.

Row | SMILES | Relative power towards Cirazoline [1] | ED50 (before antagonists) [1] [µg/kg] | ED50 [1] [µg/kg] | Heartbeat frequency under electric stimulation (supramaximal tachycardia) [3] | Heartbeat frequency under electric stimulation and after clonidine [3] | restoration of submaximal tachycardia / presynaptic α2-adrenoceptor antagonist activity [3] | effect of reserpine pre-treatment on vasoconstrictor effects [4] | ED50 after yohimbine [5] [µg/kg] | antagonism of vasoconstrictor effect by yohimbine [5] | ED50 after / ED50 before yohimbine [5] | ED50 after prazosine ([6]; prazosine 20 μg/kg/min./5 min.) [µg/kg] | ED50 after / ED50 before prazosine ([6]; prazosine 20 μg/kg/min./5 min.) | effect on induced submaximal tachycardia / presynaptic α2-adrenoceptor agonist activity [7] | also measured
1 | c1ccc(C2CC2)c(OCC2=NCCN2)c1 [Cirazoline, (2'-cyclopropyl)-2-phenyloxymethyl-Δ2-imidazoline] | 1 | 1.105 ± 0.132 | 1.105 ± 0.132 | 452.1 ± 10.5 | 395.7 ± 14.1 | neither and no effect and no | not, except in very high doses, modified | 1.180 ± 0.108 | almost not antagonized by yohimbine | 1.05 | 8.568 ± 0.721 | 7.75 | completey devoid of any presynaptic α2 -adrenoceptor agonist activity and no | known vasoconstrictor / postsynaptic α1-adrenoceptor agonist activity [2]: the most powerful and specific postsynaptic α1-adrenoceptor agonist known up to now; also recorded: powerful nasal vasoconstrictor; postsynaptic α2-adrenoceptor agonist properties [5]: no postsynaptic α2-adrenoceptor agonist; nature of agonist effect (postsynaptic α1-adrenoceptor) ([6]; in words): specific and direct postsynaptic α1 -adrenoceptor agonist effects; appearance of hydrolysis product (amino-amide (V)) in aqueous solution [8]: after a few days the appearance of the cleaving product by hydrolysis of the imidazoline cycle
2 | CC(C)c1ccccc1OCC1=NCCN1 [Fenoxazoline] | 0.62 | 1.790 ± 0.147 | 1.790 ± 0.147 |  |  |  | not, except in very high doses, modified | 1.804 ± 0.237 | almost not antagonized by yohimbine | 1.01 | 16.205 ± 1.240 | 9.05 |  | known vasoconstrictor / postsynaptic α1-adrenoceptor agonist activity [2]: postsynaptic α1 -adrenoceptor agonist
3 | Brc1ccc(C2CC2)c(OCC2=NCCN2)c1 [ND 83 202, (5'-bromo-2'-cyclopropyl)-2-phenoxymethyl-Δ2-imidazoline] | 0.25 |  | 4.422 ± 0.329 |  |  |  |  |  |  |  |  |  |  | 
4 | CCCCCc1ccc(C2CC2)c(OCC2=NCCN2)c1 [ND 83 203, (5'-n-pentyl-2'-cyclopropyl)-2-phenyloxymethyl-Δ2-imidazoline] | 0.015 |  | 74.182 ± 6.667 |  |  |  |  |  |  |  |  |  |  | 
5 | Clc1ccc(C2CC2)c(OCC2=NCCN2)c1 [ND 83 204, (5'-chloro-2'-cyclopropyl)-2-phenoxymethyl-Δ2-imidazoline] | 1.72 |  | 0.644 ± 0.050 |  |  |  |  |  |  |  |  |  |  | potency relative to Cirazoline [1]: about 1.75 times; potency relative to Fenoxazoline [1]: three; solubility in water [9]: not very soluble in water; appearance of hydrolysis product (amino-amide (V)) in aqueous solution [8]: even after one month, no trace of hydrolysis is yet detectable
6 | Cc1ccc(C2CC2)c(OCC2=NCCN2)c1 [ND 83201, (5'-methyl-2'-cyclopropyl)-2-phenyloxymethyl-Δ2-imidazoline] | 1.75 | 0.630 ± 0.060 | 0.630 ± 0.060 | 448.7 ± 7.7 | 391.2 ± 5.9 | no presynaptic α2 -adrenoceptor antagonist activity and no effect and no | not, except in very high doses, modified | 0.805 ± 0.076 | almost not antagonized by yohimbine | 1.25 | 7.284 ± 0.974 | 11.56 | completey devoid of any presynaptic α2 -adrenoceptor agonist activity and no | potency relative to Cirazoline [1]: about 1.75 times; potency relative to Fenoxazoline [1]: three; ED50 change after β-adrenoceptor antagonist / β-adrenoceptor postsynaptic agonist activity [10]: not modified; solubility in water [9]: not very soluble in water; postsynaptic α2-adrenoceptor agonist properties [5]: no postsynaptic α2-adrenoceptor agonist; nature of agonist effect (postsynaptic α1-adrenoceptor) ([6]; in words): specific and direct postsynaptic α1 -adrenoceptor agonist effects; antagonism of vasoconstrictor effect by prazosine ([6]; in words, prazosine 20 μg/kg/min./5 min.): strongly antagonized by prazosine and even slightly more than those of Cirazoline and Fenoxazoline; effect on induced submaximal tachycardia / presynaptic α2-adrenoceptor agonist activity ([7]; listed as ND 83 201): no presynaptic α2 -adrenoceptor agonist activity
7 | Cc1ccc(N(CC2=NCCN2)c2cccc(O)c2)cc1 [Phentolamine] |  |  |  | 455.6 ± 11.5 | 411.2 ± 8.9 | resores sub-maximal tachycardia |  |  |  |  |  |  |  | 
8 | Clc1cccc(Cl)c1N=C1NCCN1 [clonidine] |  |  |  |  |  |  |  |  |  |  |  |  | reduced the submaximal tachycardia | antagonism of clonidine effect by yohimbine ([7]; submaximal tachycardia): effect antagonized by yohimbine
